The results in this text go back to patent publication US9346815B2, “5-chloro-2-difluoromethoxyphenyl pyrazolopyrimidine compounds, compositions and methods of use thereof” (Genentech, Inc., priority 2014, dated 2016).

The target of experiment [1] is isolated recombinant JAK2 kinase domain (Homo sapiens (Human), UniProt O60674). The experiment in a line: JAK2 enzyme assay (Caliper LabChip, peptide phosphorylation). The class given is biochemical. Conditions: 25 μM ATP.
Experiment [2] concerns the target isolated recombinant JAK1 kinase domain (Homo sapiens (Human), UniProt P23458). Briefly: JAK1 enzyme assay (Caliper LabChip, peptide phosphorylation). The format is biochemical. The conditions noted are these: isolated recombinant JAK1 kinase domain, 25 μM ATP.
Experiment [3] has as its system JAK1-dependent STAT6 phosphorylation downstream of IL-13 stimulation in BEAS-2B human bronchial epithelial cells. The experiment in a line: JAK1 pathway assay in BEAS-2B cells (IL-13-pSTAT6, MSD). The format is cell-based. The conditions noted are these: read-out: IL13-pSTAT6 EC50 (uM)_BEAS-2B. The essentials:
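Inhibitors were added to TF-1 cells (GM-CSF-starved, serum-free) for 30 min or to BEAS-2B cells (complete medium) for 1 hr at 37° C. MSD detected pSTAT6.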

Sequence of isolated recombinant JAK1 kinase domain (P23458 875-1153): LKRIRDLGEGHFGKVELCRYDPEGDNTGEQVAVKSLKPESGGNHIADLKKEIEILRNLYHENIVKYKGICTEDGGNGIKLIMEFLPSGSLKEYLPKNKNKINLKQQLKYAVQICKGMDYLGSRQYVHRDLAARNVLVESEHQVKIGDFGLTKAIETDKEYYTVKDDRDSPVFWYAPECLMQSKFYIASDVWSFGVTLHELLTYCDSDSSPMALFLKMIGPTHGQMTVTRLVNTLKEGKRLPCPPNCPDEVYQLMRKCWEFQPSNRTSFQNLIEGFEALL
Sequence of isolated recombinant JAK2 kinase domain (O60674 849-1124): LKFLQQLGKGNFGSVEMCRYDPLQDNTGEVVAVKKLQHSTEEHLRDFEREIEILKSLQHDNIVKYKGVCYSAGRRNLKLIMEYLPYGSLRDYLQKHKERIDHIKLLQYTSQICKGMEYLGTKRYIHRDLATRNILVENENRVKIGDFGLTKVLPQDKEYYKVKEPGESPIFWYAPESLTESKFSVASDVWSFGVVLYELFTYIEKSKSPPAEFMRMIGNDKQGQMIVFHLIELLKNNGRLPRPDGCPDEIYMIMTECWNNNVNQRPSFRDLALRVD

With `CCOC(=O)CN1CCC(n2cc(NC(=O)c3cnn4cccnc34)c(-c3cc(Cl)ccc3OC(F)F)n2)CC1` [Example 366, ethyl 2-(4-[3-[5-chloro-2-(difluoromethoxy)phenyl]-4-[pyrazolo[1,5-a]pyrimidine-3-amido]-1H-pyrazol-1-yl]piperidin-1-yl)acetate], the values for the Ki in experiment [1] and in experiment [2] were 0.99 nM and 1.07 nM, respectively. The EC50 (usually the concentration that produces a half-maximal response) in experiment [3] was 0.312 µM.
Consider `O=C(Nc1cn(CCNCc2ncco2)nc1-c1cc(Cl)ccc1OC(F)F)c1cnn2cccnc12` [Example 367, N-[3-[5-chloro-2-(difluoromethoxy)phenyl]-1-[2-[(1,3-oxazol-2-ylmethyl)amino]ethyl]-1H-pyrazol-4-yl]pyrazolo[1,5-a]pyrimidine-3-carboxamide], for which the Ki (commonly a dissociation constant, usually derived from enzyme kinetics or from competition with a known ligand) in experiment [1] came to 0.5 nM; in experiment [2], 0.83 nM. In experiment [3], the EC50 was found to be 0.0352 µM.
`CN[C@@H](C)Cn1cc(NC(=O)c2cnn3cccnc23)c(-c2cc(Cl)ccc2OC(F)F)n1` [Example 369, N-[3-[5-chloro-2-(difluoromethoxy)phenyl]-1-[(2S)-2-(methylamino)propyl]-1H-pyrazol-4-yl]pyrazolo[1,5-a]pyrimidine-3-carboxamide]: the inhibitory constant (Ki) in experiment [1] came to 1.25 nM; in experiment [2], 1.13 nM. The EC50 in experiment [3] was 0.0093 µM.
In the same order, the values of `C[C@@H](Cn1cc(NC(=O)c2cnn3cccnc23)c(-c2cc(Cl)ccc2OC(F)F)n1)N(C)C` [Example 370, N-[3-[5-chloro-2-(difluoromethoxy)phenyl]-1-[(2S)-2-(dimethylamino)propyl]-1H-pyrazol-4-yl]pyrazolo[1,5-a]pyrimidine-3-carboxamide] are 1.37 nM, 1.37 nM and 0.0402 µM.
`CC(C)N1CCN(C(=O)Cn2cc(NC(=O)c3cnn4cccnc34)c(-c3cc(Cl)ccc3OC(F)F)n2)CC1` [Example 373, N-[3-[5-chloro-2-(difluoromethoxy)phenyl]-1-[2-oxo-2-[4-(propan-2-yl)piperazin-1-yl]ethyl]-1H-pyrazol-4-yl]pyrazolo[1,5-a]pyrimidine-3-carboxamide]: the inhibition constant (Ki) in experiment [1] is 1.24 nM; in experiment [2], 0.7 nM. For the same compound, in experiment [3], the EC50 came out at 0.0342 µM.
`O=C(Nc1cn(CC(=O)N2CCN(CC3CC3)CC2)nc1-c1cc(Cl)ccc1OC(F)F)c1cnn2cccnc12` [Example 374, N-[3-[5-chloro-2-(difluoromethoxy)phenyl]-1-[2-[4-(cyclopropylmethyl)piperazin-1-yl]-2-oxoethyl]-1H-pyrazol-4-yl]pyrazolo[1,5-a]pyrimidine-3-carboxamide]: the Ki was determined as 0.88 nM in experiment [1] and 0.45 nM in experiment [2]. For the same compound, the 50% effective concentration (EC50) in experiment [3] is 0.0295 µM.
On the same counts, the results for `CC1CN(C)CCN1C(=O)Cn1cc(NC(=O)c2cnn3cccnc23)c(-c2cc(Cl)ccc2OC(F)F)n1` (stereo not drawn) [Example 375, N-[3-[5-chloro-2-(difluoromethoxy)phenyl]-1-[2-(2,4-dimethylpiperazin-1-yl)-2-oxoethyl]-1H-pyrazol-4-yl]pyrazolo[1,5-a]pyrimidine-3-carboxamide] are 1.54 nM, 0.75 nM and 0.0716 µM.
On the same counts, the results for `CC1CN(C(=O)Cn2cc(NC(=O)c3cnn4cccnc34)c(-c3cc(Cl)ccc3OC(F)F)n2)CCN1C` (stereo not drawn) [Example 376, N-[3-[5-chloro-2-(difluoromethoxy)phenyl]-1-[2-(3,4-dimethylpiperazin-1-yl)-2-oxoethyl]-1H-pyrazol-4-yl]pyrazolo[1,5-a]pyrimidine-3-carboxamide] are 1.03 nM, 0.66 nM and 0.0325 µM.
With `CN1CCN(C(=O)Cn2cc(NC(=O)c3cnn4cccnc34)c(-c3cc(Cl)ccc3OC(F)F)n2)C(C)(C)C1` [Example 377, N-[3-[5-chloro-2-(difluoromethoxy)phenyl]-1-[2-oxo-2-(2,2,4-trimethylpiperazin-1-yl)ethyl]-1H-pyrazol-4-yl]pyrazolo[1,5-a]pyrimidine-3-carboxamide], the figures for the Ki in experiment [1] and in experiment [2] were 1.3 nM and 0.56 nM, respectively. In addition, the EC50 in experiment [3] is 0.0528 µM.
On the same counts, the results for `CN1CCN(C(=O)Cn2cc(NC(=O)c3cnn4cccnc34)c(-c3cc(Cl)ccc3OC(F)F)n2)CC1(C)C` [Example 378, N-[3-[5-chloro-2-(difluoromethoxy)phenyl]-1-[2-oxo-2-(3,3,4-trimethylpiperazin-1-yl)ethyl]-1H-pyrazol-4-yl]pyrazolo[1,5-a]pyrimidine-3-carboxamide] are 1.6 nM, 0.93 nM and 0.0874 µM.
On the same counts, the results for `CN(C)CCN1CCN(C(=O)Cn2cc(NC(=O)c3cnn4cccnc34)c(-c3cc(Cl)ccc3OC(F)F)n2)CC1` [Example 379, N-[3-[5-chloro-2-(difluoromethoxy)phenyl]-1-(2-[4-[2-(dimethylamino)ethyl]piperazin-1-yl]-2-oxoethyl)-1H-pyrazol-4-yl]pyrazolo[1,5-a]pyrimidine-3-carboxamide] are 2.33 nM, 0.86 nM and 0.0755 µM.
`O=C(Nc1cn(CC(=O)N2CCN(Cc3ncco3)CC2)nc1-c1cc(Cl)ccc1OC(F)F)c1cnn2cccnc12` [Example 380, N-[3-[5-chloro-2-(difluoromethoxy)phenyl]-1-[2-[4-(1,3-oxazol-2-ylmethyl)piperazin-1-yl]-2-oxoethyl]-1H-pyrazol-4-yl]pyrazolo[1,5-a]pyrimidine-3-carboxamide]: the Ki in experiment [1] worked out at 0.68 nM; in experiment [2] it was 0.3 nM. Moreover, the EC50 in experiment [3] worked out at 0.0481 µM.
For the compound `O=C1CCC(CNCCn2cc(NC(=O)c3cnn4cccnc34)c(-c3cc(Cl)ccc3OC(F)F)n2)O1` (stereo not drawn) [Example 381, N-[3-[5-chloro-2-(difluoromethoxy)phenyl]-1-(2-[[(5-oxooxolan-2-yl)methyl]amino]ethyl)-1H-pyrazol-4-yl]pyrazolo[1,5-a]pyrimidine-3-carboxamide], the Ki stood at 0.55 nM in experiment [1] and 1.07 nM in experiment [2]. In addition, in experiment [3], the half-maximal effective concentration (EC50) was found to be 0.0298 µM.
On the same counts, the results for `O=C1CCC(CN2CCN(C(=O)Cn3cc(NC(=O)c4cnn5cccnc45)c(-c4cc(Cl)ccc4OC(F)F)n3)CC2)O1` (stereo not drawn) [Example 382, N-[3-[5-chloro-2-(difluoromethoxy)phenyl]-1-(2-oxo-2-[4-[(5-oxooxolan-2-yl)methyl]piperazin-1-yl]ethyl)-1H-pyrazol-4-yl]pyrazolo[1,5-a]pyrimidine-3-carboxamide] are 0.75 nM, 0.34 nM and 0.0257 µM.
In the same order, the values of `CNC(=O)CN1CCN(C(=O)Cn2cc(NC(=O)c3cnn4cccnc34)c(-c3cc(Cl)ccc3OC(F)F)n2)CC1` [Example 383, N-[3-[5-chloro-2-(difluoromethoxy)phenyl]-1-(2-[4-[(methylcarbamoyl)methyl]piperazin-1-yl]-2-oxoethyl)-1H-pyrazol-4-yl]pyrazolo[1,5-a]pyrimidine-3-carboxamide] are 0.66 nM, 0.39 nM and 0.277 µM.
In the same order, the values of `COC(=O)CNCCn1cc(NC(=O)c2cnn3cccnc23)c(-c2cc(Cl)ccc2OC(F)F)n1` [Example 386, methyl 2-[(2-[3-[5-chloro-2-(difluoromethoxy)phenyl]-4-[pyrazolo[1,5-a]pyrimidine-3-amido]-1H-pyrazol-1-yl]ethyl)amino]acetate] are 0.56 nM, 1.06 nM and 0.0297 µM.
Regarding `COC(=O)[C@@H](N)CCn1cc(NC(=O)c2cnn3cccnc23)c(-c2cc(Cl)ccc2OC(F)F)n1` [Example 387, methyl (2S)-2-amino-4-[3-[5-chloro-2-(difluoromethoxy)phenyl]-4-[pyrazolo[1,5-a]pyrimidine-3-amido]-1H-pyrazol-1-yl]butanoate], the figures for the Ki in experiment [1] and in experiment [2] were 0.46 nM and 1.24 nM, respectively. In experiment [3], the EC50 worked out at 0.0107 µM.
In the same order, the values of `CN1CCC(COC(=O)C2CCN(C(=O)Cn3cc(NC(=O)c4cnn5cccnc45)c(-c4cc(Cl)ccc4OC(F)F)n3)CC2)CC1` [Example 388, (1-methylpiperidin-4-yl)methyl 1-(2-[3-[5-chloro-2-(difluoromethoxy)phenyl]-4-[pyrazolo[1,5-a]pyrimidine-3-amido]-1H-pyrazol-1-yl]acetyl)piperidine-4-carboxylate] are 2.42 nM, 0.51 nM and 0.0241 µM.
`CN1CCC(COC(=O)C2(C)CCN(C(=O)Cn3cc(NC(=O)c4cnn5cccnc45)c(-c4cc(Cl)ccc4OC(F)F)n3)CC2)CC1` [Example 389, (1-methylpiperidin-4-yl)methyl 1-(2-[3-[5-chloro-2-(difluoromethoxy)phenyl]-4-[pyrazolo[1,5-a]pyrimidine-3-amido]-1H-pyrazol-1-yl]acetyl)-4-methylpiperidine-4-carboxylate]: the inhibition constant (Ki) in experiment [1] is 2.16 nM; in experiment [2], 0.4 nM. In addition, the EC50 in experiment [3] amounted to 0.0175 µM.
Regarding `CN(CCn1cc(NC(=O)c2cnn3cccnc23)c(-c2cc(Cl)ccc2OC(F)F)n1)CC1CCC(=O)O1` (stereo not drawn) [Example 390, N-[3-[5-chloro-2-(difluoromethoxy)phenyl]-1-(2-[methyl[(5-oxooxolan-2-yl)methyl]amino]ethyl)-1H-pyrazol-4-yl]pyrazolo[1,5-a]pyrimidine-3-carboxamide], the values for the inhibition constant Ki in experiment [1] and in experiment [2] were 0.84 nM and 1.28 nM, respectively. Also, in experiment [3], the EC50 is 0.0424 µM.
In the same order, the values of `CCOC(=O)CCN(C)C1CCN(C(=O)Cn2cc(NC(=O)c3cnn4cccnc34)c(-c3cc(Cl)ccc3OC(F)F)n2)CC1` [Example 391, ethyl 3-[[1-(2-[3-[5-chloro-2-(difluoromethoxy)phenyl]-4-[pyrazolo[1,5-a]pyrimidine-3-amido]-1H-pyrazol-1-yl]acetyl)piperidin-4-yl](methyl)amino]propanoate] are 2.49 nM, 0.91 nM and 0.0206 µM.
